What was measured:
NKG2A+/NKG2C− NK cells = test: NK cell stimulation assay with peptide-loaded HLA-E expressing target cells, NKG2A+ cells; type: cell-based, human; details: NK cell degranulation and IFN-g, TNF and CCL3 production; compared to LIL, LFL and PQS controls
Experimental: (§1) FIG. 4: NK cell stimulation assays. Assessment of effects of peptides on NK cell activity through incubation of NK cells, peptides, and a) K562/HLA-E or b) RMA-S/HLA-E target cells. Peptides were derived from the human or CMV proteomes or are included as positive (LFL, LIL) or negative controls (PQS). Replicates for individual peptides are from different donors, with solid black lines indicating mean values.
(§2) Cell-based activation assays were performed with primary NK cells (FIG. 4). Therein, NK cells were co-incubated with K562 peptide-loaded HLA-E expressing cells, as described previously^14. The K562 human […] cell line is a common tool for the analysis of NK cell cytotoxicity and activation, as said cells facilitate the analysis of both NKG2C-mediated activation and NKG2A-mediated inhibition. The PQS peptide served as a negative control.
(§3) Peptides that bound and stabilized HLA-E in the cell-based stability experiment (FIG. 3) were selected and assessed regarding their effect on NKG2A+/NKG2C− or NKG2A−/NKG2C+ NK cell activity. The effect was quantified by the ability to induce NK cell degranulation and IFN-g, TNF and CCL3 production, compared to […] (“LIL”; SEQ ID NO: 4) and […] (“LFL”; SEQ ID NO: 2) peptides (class I MHC-derived) as positive control, and […] (“PQS”; (SEQ ID NO: 53) as negative control peptide (FIG. 4). NKG2A/NKG2C NK cells served as an internal control. NKG2A/NKG2C NK cells have been shown previously to not be affected by peptide-HLA-E complexes.

HLA-E = HLA-E (Homo sapiens, UniProt P13747); test: HLA-E surface stabilization assay with RMA-S/HLA-E cells; type: cell-based; details: RMA-S/HLA-E cells incubated with 30 μM peptide, anti-HLA-E antibody
Chain of HLA-E (P13747 22-358): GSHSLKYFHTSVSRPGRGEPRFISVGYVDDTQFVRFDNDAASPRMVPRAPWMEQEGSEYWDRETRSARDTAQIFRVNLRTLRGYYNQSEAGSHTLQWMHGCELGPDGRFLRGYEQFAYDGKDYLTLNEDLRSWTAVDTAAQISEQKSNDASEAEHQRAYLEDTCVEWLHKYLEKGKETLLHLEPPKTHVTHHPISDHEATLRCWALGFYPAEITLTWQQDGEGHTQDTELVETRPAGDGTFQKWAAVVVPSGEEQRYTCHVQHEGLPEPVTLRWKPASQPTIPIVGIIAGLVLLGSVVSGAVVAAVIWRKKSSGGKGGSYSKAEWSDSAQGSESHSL
Chain of HLA-E (P61769 21-119, further chain): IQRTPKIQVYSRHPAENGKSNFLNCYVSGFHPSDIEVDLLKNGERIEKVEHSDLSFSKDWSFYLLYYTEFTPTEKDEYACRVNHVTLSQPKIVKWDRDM
Experimental: Assessment of peptide-HLA-E binding via HLA-E surface stabilization assay with RMA-S/HLA-E cells incubated with 30 μM peptide. HLA-E expression is detected with an anti-HLA-E antibody.
To do so, various sequence variants were assessed for their ability to stabilize surface-expressed HLA-E on RMA-S/HLA-E cells, a TAP-deficient mouse tumor cell line engineered to express HLA-E and human β2M (FIG. 3).

NKG2A−/NKG2C+ NK cells = test: NK cell stimulation assay with peptide-loaded HLA-E expressing target cells, NKG2C+ cells; type: cell-based, human; details: NK cell degranulation and IFN-g, TNF and CCL3 production; compared to LIL, LFL and PQS controls
Experimental: as §1, §2, §3

Row | Sequence | inhibitory effect on NKG2A+ cells (NKG2A+/NKG2C− NK cells) | stabilization of HLA-E surface expression (peptide-HLA-E binding) (HLA-E) | activating effect on NKG2C+ cells (NKG2A−/NKG2C+ NK cells)
1 | FLPNRSLLF | moderate inhibitory effects | strong stabilization of HLA-E | strong activating effects
2 | ILTDRSLWL | moderate inhibitory effects | strong stabilization of HLA-E | strong activating effects
3 | NMPARTVLF | strong inhibitory effect | strong stabilization of HLA-E | strong activating effect
4 | QMPSRSLLF | moderate inhibitory effects | strong stabilization of HLA-E | strong activating effects
5 | RMPPRSVLL | strong inhibitory effect | – | strong activating effect
6 | TAPARTMFL | – | strong stabilization of HLA-E | –
7 | TLPERTLYL | strong inhibitory effect | strong stabilization of HLA-E | strong activating effect
8 | TLPKRGLFL | moderate inhibitory effects | strong stabilization of HLA-E | strong activating effects
9 | VLPHRTQFL | strong inhibitory effect | strong HLA-E binding | strong activating effect
10 | VMADKSIFY [OR5D14, reference compound] | – | no stabilizing effects | –
11 | VMGDRSVLY [EMC1, reference compound] | – | no stabilizing effects | –
12 | VMPGRTLCF | strong inhibitory effect | strong stabilization of HLA-E | strong activating effect
13 | VMPPRTLLL | strong inhibitory effect | strong stabilization of HLA-E | strong activating effect
14 | WNRLFPPLR [UBAC2275-279, reference compound] | – | no stabilizing effects | –
